Reference: patent US10183014B2, “Ocular formulations for drug-delivery and protection of the anterior segment of the eye” (PanOptica, Inc., priority 2014, dated 2019)
“And” between values parts separate entries of the source, which are not always exact repeats. Equal values may be shown once. Read-outs that look alike come from different tables or passages of the source.

Columns and labels:
[1] = Ocular pharmacokinetics of formulations, Example 20-4; type: in vivo, Dutch Belted rabbits; conditions: Dutch Belted, rabbit, topical, PSD 30 μm/XL, HPMC 0.08%, glycerol 2.5%, HEC 0.2%, VitK3 1 μM, pH ≈7.5, QD, Day 5, 1 hr post dose
Procedure: The study design (Table 18-1) consisted of forty-nine (49) Dutch Belted rabbits, each receiving a 30 μL bilateral topical ocular dose.
Ocular sampling occurred one hour following the first daily dose on Day 5 for all groups. Whole blood samples using K2EDTA as an anticoagulant were collected from all animals on Day 5, 1 hour post dose. The whole blood was placed on ice until samples were spun in a centrifuge to separate the plasma. Aqueous humor, conjunctiva, cornea, central retina, peripheral retina, central choroid, and peripheral choroid samples were collected following necropsy. Samples were then frozen at −70° C. or lower. For all Groups 1-16, plasma, central retina, central choroid, and cornea samples were assayed for PAN-90806.

[2] = Particle size distribution by laser diffraction light scattering; type: physicochemical; conditions: API form Freebase
Procedure: Particle size distribution can be analyzed using laser diffraction light scattering, e.g., with a Horiba LA-950 V2. Generic assumptions are made in setting conditions and the refractive index value. The distributions are volume based. Sample density is adjusted to a generic range of percent transmission on the blue LED light source. A small sample cell (filled with water) can be used rather than the flow through cell, to minimize sample quantity.
Particle size distribution was analyzed using laser diffraction light scattering with a Horiba LA-950 V2. Generic assumptions were made in setting conditions and the refractive index value. The distributions were volume based. Sample density was adjusted to a generic range of percent transmission on the blue LED light source. A small sample cell (filled with water) was used rather than the flow through cell, to minimize sample quantity.

EGFR = target: T1, EGFR (Homo sapiens, UniProt P00533); assay: EGFR tyrosine phosphorylation assay in hTCEpi cells with a second active agent; type: cell-based; conditions: vitamin K 50 μM, nicotinic acid 10 μM or nicotinamide 10 μM, 4 hours pre-treatment; EGF 50 ng/ml
T1 construct: endogenous in cells; host or cells: hTCEpi (immortalized corneal epithelial cells)
T1 sequence (P00533 25-1210): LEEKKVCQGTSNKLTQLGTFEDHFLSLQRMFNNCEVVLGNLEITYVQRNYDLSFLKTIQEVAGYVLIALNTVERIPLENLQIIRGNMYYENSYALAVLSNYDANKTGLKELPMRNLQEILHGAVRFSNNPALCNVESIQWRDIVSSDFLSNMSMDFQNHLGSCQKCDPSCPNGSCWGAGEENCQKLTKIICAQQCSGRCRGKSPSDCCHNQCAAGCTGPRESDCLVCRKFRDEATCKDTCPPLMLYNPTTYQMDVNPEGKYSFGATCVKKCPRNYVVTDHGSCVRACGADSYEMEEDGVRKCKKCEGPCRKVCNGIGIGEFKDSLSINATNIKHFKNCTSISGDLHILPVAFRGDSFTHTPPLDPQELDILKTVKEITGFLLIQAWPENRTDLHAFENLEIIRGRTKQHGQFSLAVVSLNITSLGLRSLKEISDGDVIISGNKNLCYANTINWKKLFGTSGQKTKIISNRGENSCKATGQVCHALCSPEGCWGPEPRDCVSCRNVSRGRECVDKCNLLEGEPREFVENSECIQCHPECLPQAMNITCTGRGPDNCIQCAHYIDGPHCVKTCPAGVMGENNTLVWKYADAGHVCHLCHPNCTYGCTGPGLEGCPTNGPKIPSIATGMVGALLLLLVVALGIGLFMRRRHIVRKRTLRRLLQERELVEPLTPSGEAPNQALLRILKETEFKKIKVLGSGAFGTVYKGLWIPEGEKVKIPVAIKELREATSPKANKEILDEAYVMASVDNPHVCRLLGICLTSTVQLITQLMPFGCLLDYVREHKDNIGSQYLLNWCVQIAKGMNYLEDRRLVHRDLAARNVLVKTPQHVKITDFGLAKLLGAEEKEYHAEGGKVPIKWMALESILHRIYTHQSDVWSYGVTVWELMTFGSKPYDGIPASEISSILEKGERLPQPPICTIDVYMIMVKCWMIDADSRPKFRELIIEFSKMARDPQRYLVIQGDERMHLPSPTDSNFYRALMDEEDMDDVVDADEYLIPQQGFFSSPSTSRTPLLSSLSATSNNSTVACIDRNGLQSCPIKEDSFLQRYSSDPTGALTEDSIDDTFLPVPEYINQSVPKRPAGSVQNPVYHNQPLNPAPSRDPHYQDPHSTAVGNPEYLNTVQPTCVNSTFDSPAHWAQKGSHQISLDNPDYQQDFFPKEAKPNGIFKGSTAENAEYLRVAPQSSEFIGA
Procedure: An EGFR tyrosine assay in corneal epithelial cells is run to determine if Vitamin K or nicotinic acid/nicotinamide can overcome inhibition of EGFR and if there is an increase in EGFR activity. […] Cells are harvested cells and immunoblotted for determination of phosphorylated EGFR (tyrosine 1068 and tyrosine 1045) and total EGFR concentration which was used to determine receptor activity (IC50).
The cells were then incubated with EGF (50 ng/ml) for 15 minutes. Cells were harvested and cell lysates were immunoblotted for determination of phosphorylated EGFR (tyrosine 1068 and tyrosine 1045) and total EGFR concentration.

[3] = excipient PVP K-29/32, roller speed high, media size 0.8 mm, particles under storage 1 day, RT
[4] = excipient PVP K-29/32, roller speed high, media size 0.8 mm, particles under storage 15 days, RT
[5] = excipient Pluronic F-127, milling not given, particles under storage 6 days, 40° C.
[6] = excipient Pluronic F-127, roller speed high, media size 0.8 mm, particles under storage 3 days, RT
[7] = excipient Pluronic F-127, roller speed low, media size 3 mm
[8] = excipient Tween 80, milling not given
[9] = excipient Tween 80, roller speed high, media size 0.8 mm, particles under storage 28 days, RT

## NC(=O)c1c(OCc2c(F)cc(Br)cc2F)nsc1NC(=O)NCCCCN1CCCC1 [Formula II]
[1]; central choroid, 4 mg/mL (30 μL per eye, bilateral), Group 4: 4 mg/mL FB suspension, read-out: Central Choroid concentration
  concentration at 1 h: 203 nM
[1]; central choroid, Group 5: 6 mg/mL FB suspension, read-out: Central Choroid concentration
  concentration at 1 h: 203 nM
[1]; central retina, 4 mg/mL (30 μL per eye, bilateral), Group 4: 4 mg/mL FB suspension, read-out: Central Retina concentration
  concentration at 1 h: 38.4 nM
[1]; central retina, Group 5: 6 mg/mL FB suspension, read-out: Central Retina concentration
  concentration at 1 h: 47.9 nM
[1]; cornea, 4 mg/mL (30 μL per eye, bilateral), Group 4: 4 mg/mL FB suspension, read-out: Cornea concentration
  concentration at 1 h: 21300 nM
[1]; cornea, Group 5: 6 mg/mL FB suspension, read-out: Cornea concentration
  concentration at 1 h: 23800 nM
[1]; plasma, 4 mg/mL (30 μL per eye, bilateral), Group 4: 4 mg/mL FB suspension, read-out: Plasma concentration
  concentration at 1 h: 3.27 nM
[1]; plasma, Group 5: 6 mg/mL FB suspension, read-out: Plasma concentration
  concentration at 1 h: 3.91 nM
[2]; [3]
  PSD (Particle Size Distribution) Mean: ~210 nm
  PSD (Particle Size Distribution) Median: ~150 nm
[2]; [4]
  PSD (Particle Size Distribution) Mean: ~170 nm
  PSD (Particle Size Distribution) Median: ~130 nm
[2]; [5]
  PSD (Particle Size Distribution) Mean: ~3100 nm
  PSD (Particle Size Distribution) Median: ~2500 nm
[2]; [6]
  PSD (Particle Size Distribution) Mean: ~130 nm
  PSD (Particle Size Distribution) Median: ~120 nm
[2]; [7]
  PSD (Particle Size Distribution) Mean: ~8100 nm and ~4700 nm
  PSD (Particle Size Distribution) Median: ~6200 nm and ~4400 nm
[2]; [8]
  PSD (Particle Size Distribution) Mean: ~2000 nm
  PSD (Particle Size Distribution) Median: ~300 nm
[2]; [9]
  PSD (Particle Size Distribution) Mean: ~370 nm
  PSD (Particle Size Distribution) Median: ~160 nm
[2]; excipient Tween 80, roller speed low, media size 3 mm
  PSD (Particle Size Distribution) Median: ~5500 nm and ~3900 nm and ~3700 nm and ~3500 nm

## NC(=O)c1cccnc1 [nicotinamide]
EGFR
  Effect on Formula I or II compound-mediated EGFR inhibition: overcome

## O=C(O)c1cccnc1 [nicotinic acid]
EGFR
  Effect on Formula I or II compound-mediated EGFR inhibition: overcome
